Source: patent US10336792B2, “Antimicrobial peptide dendrimers” (priority 2014, dated 2019)

How the values were obtained:
Acinetobacter baumannii = assay type: cell-based; settings: MH medium, 12-18 h
In short: (§1)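 Broth microdilution in Müller-Hinton medium, two-fold serial dilutions from a starting 32–256 μg/mL, compounds dissolved in PBS; inoculum about 5×10^5 CFU, incubated 37° C ~18 h. MIC taken as lowest concentration with no visible growth by eye; polymyxin as reference.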

[1] = tested on: Staphylococcus aureus (COL, MRSA reference strain); assay type: cell-based; settings: MH medium, 12-18 h
In short: as §1

[2] = tested on: P. aeruginosa PEJ2.6, PEJ9.1, ZEM1.A, ZEM9.A (clinical isolates); assay type: cell-based, Pseudomonas aeruginosa; settings: MH medium, 12-18 h
Protocol: Antimicrobial activity was assayed against P. aeruginosa PA01 (WT), P. aeruginosa PT1482 (A-), PT1485 (A-B-), PT1149 (A-B-C-algC), PT331 (Z61) (LPS mutants), P. aeruginosa PEJ2.6, PEJ9.1, ZEM1.A, ZEM9.A (clinical isolates from Université de Genève/Centre Médical Universitaire), Burkholderia cenocepacia (B. ceno), Staphylococcus aureus (S. aureus, MRSA strain) and Acinetobacter baumannii (A. baum) (clinical isolates from Université de Genève/Centre Médical Universitaire). To determine the minimal inhibitory concentration (MIC), microdilution broth method was used. A colony of bacteria was grown in MH-medium overnight at 37° C. The samples were prepared as stock solutions of 8 mg mL^−1 in H2O, diluted to the beginning concentration of 32, 64, 128 or 256 μg/mL in 300 μL MH-medium, added to the first well of 96-well microtiterplate (TPP, untreated) and diluted serially by ½. The concentration of the bacteria was quantified by measuring absorbance at 600 nm and diluted to OD600=0.022 in MH-medium. The sample solutions (150 μL) were mixed with 4 μL diluted bacterial suspension with a final inoculation of about of 5×10^5 CFU. The plates were incubated at 37° C. until satisfactory growth (˜18 h). For each test, two columns of the plate were kept for sterility control (SC, broth only) and growth control (GC, broth with bacterial inoculums, no antibiotics). The minimal inhibitory concentration (MIC) was defined as the lowest concentration of the antimicrobial substance (peptide dendrimer) that inhibited visible growth of the tested bacteria with the unaided eye. For microbiological study Polymyxin was used as references.
Ten of the most promising compounds (FIG. 5) were tested for their efficiency against four clinical isolates of P. aeruginosa (ZEM9.A, ZEM1.A, PEJ2.6, PEJ9.1), one S. aureus (COL, MRSA reference strain) and one A. baumannii strain. For the experiments in Genève the peptide dendrimers and reference compounds (polymyxin) were dissolved in PBS and the assay was carried out in Müller-Hinton (MH) broth with a two-fold dilution.

[3] = 5(6)-Carboxyfluorescein leakage from lipid vesicles; settings: 10 mM TRIS, 107 mM NaCl, pH 7.4; peptide added at 50 s
Protocol: Preparation A thin lipid film was prepared by evaporating a solution of 25 mg Egg PC or Egg PG in 1 mL MeOH/CHCl3 1/1 on a rotary evaporator (rt) and then in vacuo overnight. The resulting film was hydrated with 1 mL buffer (50 mM CF, 10 mM TIRS, 10 mM NaCl, pH 7.4) for 30 min, subjected to freeze-thaw cycles (7×) and extrusion (15×) through a polycarbonate membrane (pore size 100 nm). Extravesicular components were removed by gel filtration (Sephadex G-50) with 10 mM TRIS, 107 mM NaCl, pH 7.4. Final conditions: ˜2.5 mM Egg PC or Egg PG; inside: 50 mM CF, 10 mM TIRS, 10 mM NaCl, pH 7.4; outside: 10 mM TRIS, 107 mM NaCl, pH 7.4.
Experiment Egg PC or Egg PG stock solutions (37.5 μL) were diluted with a buffer (10 mM TRIS, 107 mM NaCl, pH 7.4) and placed in a thermostated fluorescence cuvette (25° C.) and gently stirred (total volume in the cuvette ˜3000 μL; final lipid concentration ˜31.25 μM). CF efflux was monitored at λem 517 nm (λex 492 nm) as a function of time after addition of 20 μL of peptide dendrimer in buffer (10 mM TRIS, 107 mM NaCl, pH 7.4) with final concentrations of 1, 5, 7.5, 10, 15, 20, 25, 30 μg/mL at t=50 s and 1.2% trition X-100 (30 μL, 0.012% final concentration) at t=300 s. Fluorescence intensities were normalized to fractional emission intensity I(t) using I(t)=(It−I0)/(I∞−I0) where I0 It at peptide dendrimer addition, I∞=It at saturation of lysis.

[4] = tested on: Pseudomonas aeruginosa (strain PA01); test: microbe, parasite or virus in culture; assay type: cell-based; settings: LB medium, serial 2/3 dilution, 37 °C, 18-24 h
In short: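 Broth microdilution MIC against P. aeruginosa PAO1 in LB: peptides serially diluted by ⅔, bacteria added at OD600 0.001 and incubated 18–24 h at 37 °C. MTT added; MIC is the lowest concentration preventing visible growth.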

Question: Which results are given for Polymyxin B [reference compound]?
Answer: MIC A. baumannii ATCC19606 (Acinetobacter baumannii): <1 µg/mL; MIC S. aureus COL [1]: 64 µg/mL; MIC P. aeruginosa MDR clinical isolate PEJ2.6 [2]: 1 µg/mL; MIC P. aeruginosa MDR clinical isolate PEJ9.1 [2]: 2 µg/mL; MIC P. aeruginosa MDR clinical isolate ZEM1A [2]: <1 µg/mL; MIC P. aeruginosa MDR clinical isolate ZEM9A [2]: 8 µg/mL; CF leakage from phosphatidylcholine LUVs [3]: behave in the same way; MIC P. aeruginosa PAO1 [4]: 2 µg/mL
